Measured values from patent publication US8546414B2, “Ion channel modulators and methods of use” (Vertex Pharmaceuticals Incorporated, priority 2004, dated 2013).

What was measured:
Assay type in all cases: cell-based
NaV1.8 = NaV1.8 (Homo sapiens, UniProt Q9Y5Y9); test: VIPR optical membrane potential assay, NaV1.8 (other subtypes in an analogous mode); details: Table 9, NaV 1.8 receptors
Procedure, shortened: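 Cells expressing the NaV subtype stained with coumarin and DiSBAC2(3) membrane-potential dyes, then incubated with test compound for 20-30 minutes. Depolarization evoked by sodium addback and read optically on VIPR; block measured as reduced membrane-potential response, with tetracaine as positive control.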

CaV2.2 = molecular target: T1, CaV2.2 (Homo sapiens, UniProt Q00975); test: VIPR optical membrane potential assay with electrical stimulation, CaV2.2; details: Table 9, CaV 2.2 receptors
T1 construct: expressed in transfected cells; host or cells: HEK293
Procedure, shortened: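 HEK293 cells stably expressing CaV2.2 stained with CC2-DMPE/DiSBAC2(3) voltage-sensitive dyes (10 μM final CC2-DMPE, 30 min, RT), then compound added and cells electrically stimulated for 3-5 s. Read-out: background-subtracted 460/580 nm emission ratio; response R=Rf/Ri (post- vs pre-stimulus ratio); antagonism seen as reduced response.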

NaV1.3 = molecular target: T2, NaV1.3 (Homo sapiens, UniProt Q9NY46); test: VIPR optical membrane potential assay with electrical stimulation, NaV1.3; details: Table 9, NaV 1.3 receptors
T2 construct: expressed in transfected cells; host or cells: HEK293
Procedure, shortened: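 HEK293 cells stably expressing NaV1.3, stained with CC2-DMPE (10 μM final) then DiSBAC2(3) with ABSC1, 30 min each at RT; compounds added with oxonol. Electrical stimulation for 3 s; 460/580 nm background-subtracted emission ratio Rf/Ri, normalised to tetracaine (positive) and untreated (negative) controls.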

T1 sequence (Q00975 whole entry): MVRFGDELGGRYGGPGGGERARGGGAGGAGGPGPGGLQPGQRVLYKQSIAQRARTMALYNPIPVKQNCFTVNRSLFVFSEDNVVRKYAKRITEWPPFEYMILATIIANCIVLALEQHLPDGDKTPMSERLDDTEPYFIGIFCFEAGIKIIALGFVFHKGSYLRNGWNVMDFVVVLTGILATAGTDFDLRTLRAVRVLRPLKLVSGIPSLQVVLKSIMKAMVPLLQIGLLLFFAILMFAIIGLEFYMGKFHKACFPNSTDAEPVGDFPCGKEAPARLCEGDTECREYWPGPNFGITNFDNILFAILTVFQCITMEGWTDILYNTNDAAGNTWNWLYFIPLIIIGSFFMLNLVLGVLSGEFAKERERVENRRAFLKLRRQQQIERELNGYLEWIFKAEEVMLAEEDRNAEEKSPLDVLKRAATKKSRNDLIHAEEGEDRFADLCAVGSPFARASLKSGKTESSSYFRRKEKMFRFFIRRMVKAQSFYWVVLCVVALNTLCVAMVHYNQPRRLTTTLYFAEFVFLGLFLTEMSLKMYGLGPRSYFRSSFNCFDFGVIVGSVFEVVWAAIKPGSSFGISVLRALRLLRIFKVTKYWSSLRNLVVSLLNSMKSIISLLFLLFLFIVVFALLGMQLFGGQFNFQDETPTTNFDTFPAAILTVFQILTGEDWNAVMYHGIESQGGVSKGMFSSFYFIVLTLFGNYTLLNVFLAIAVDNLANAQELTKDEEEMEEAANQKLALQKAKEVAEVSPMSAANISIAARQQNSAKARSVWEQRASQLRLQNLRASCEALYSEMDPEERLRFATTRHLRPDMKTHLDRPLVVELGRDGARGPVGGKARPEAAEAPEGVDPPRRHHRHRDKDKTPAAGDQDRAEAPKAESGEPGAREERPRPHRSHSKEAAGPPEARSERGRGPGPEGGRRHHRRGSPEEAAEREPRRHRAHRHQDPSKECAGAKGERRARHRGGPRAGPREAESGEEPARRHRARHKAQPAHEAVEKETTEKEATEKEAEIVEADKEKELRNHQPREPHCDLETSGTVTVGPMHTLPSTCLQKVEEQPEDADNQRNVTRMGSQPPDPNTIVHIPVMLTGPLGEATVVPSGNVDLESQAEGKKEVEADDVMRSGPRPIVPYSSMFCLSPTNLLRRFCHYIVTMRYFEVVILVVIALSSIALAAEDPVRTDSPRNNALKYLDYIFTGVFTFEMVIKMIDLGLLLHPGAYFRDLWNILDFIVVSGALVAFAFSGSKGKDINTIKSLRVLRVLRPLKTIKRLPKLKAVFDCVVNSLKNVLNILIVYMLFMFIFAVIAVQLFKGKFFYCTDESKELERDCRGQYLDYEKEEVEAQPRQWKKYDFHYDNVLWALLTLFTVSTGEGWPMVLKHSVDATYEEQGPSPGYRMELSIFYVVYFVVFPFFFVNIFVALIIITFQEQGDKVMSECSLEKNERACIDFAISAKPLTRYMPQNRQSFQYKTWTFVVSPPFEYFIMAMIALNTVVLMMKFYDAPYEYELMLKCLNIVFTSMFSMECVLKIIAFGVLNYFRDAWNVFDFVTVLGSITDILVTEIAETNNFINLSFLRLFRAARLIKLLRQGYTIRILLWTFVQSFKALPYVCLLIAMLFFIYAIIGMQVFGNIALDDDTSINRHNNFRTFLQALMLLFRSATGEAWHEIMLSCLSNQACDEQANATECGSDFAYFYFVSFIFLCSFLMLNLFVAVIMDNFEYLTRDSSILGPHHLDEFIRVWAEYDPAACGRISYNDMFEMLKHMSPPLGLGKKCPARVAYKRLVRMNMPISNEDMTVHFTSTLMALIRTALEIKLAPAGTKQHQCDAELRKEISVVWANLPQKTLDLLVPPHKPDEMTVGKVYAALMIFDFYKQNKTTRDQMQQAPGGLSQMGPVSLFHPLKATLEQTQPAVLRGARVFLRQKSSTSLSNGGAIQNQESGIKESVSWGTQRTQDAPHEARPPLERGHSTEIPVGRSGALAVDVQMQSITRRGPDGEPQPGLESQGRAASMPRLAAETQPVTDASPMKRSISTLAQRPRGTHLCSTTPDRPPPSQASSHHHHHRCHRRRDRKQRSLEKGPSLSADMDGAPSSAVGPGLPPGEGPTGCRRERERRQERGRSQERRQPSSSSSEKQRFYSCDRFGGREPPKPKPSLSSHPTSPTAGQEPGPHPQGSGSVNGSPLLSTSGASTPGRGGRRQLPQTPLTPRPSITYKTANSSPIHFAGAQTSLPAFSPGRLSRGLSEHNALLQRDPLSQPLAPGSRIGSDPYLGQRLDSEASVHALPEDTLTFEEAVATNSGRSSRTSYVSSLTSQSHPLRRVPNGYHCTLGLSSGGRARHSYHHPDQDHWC
T1 sequence (P54284 whole entry partner): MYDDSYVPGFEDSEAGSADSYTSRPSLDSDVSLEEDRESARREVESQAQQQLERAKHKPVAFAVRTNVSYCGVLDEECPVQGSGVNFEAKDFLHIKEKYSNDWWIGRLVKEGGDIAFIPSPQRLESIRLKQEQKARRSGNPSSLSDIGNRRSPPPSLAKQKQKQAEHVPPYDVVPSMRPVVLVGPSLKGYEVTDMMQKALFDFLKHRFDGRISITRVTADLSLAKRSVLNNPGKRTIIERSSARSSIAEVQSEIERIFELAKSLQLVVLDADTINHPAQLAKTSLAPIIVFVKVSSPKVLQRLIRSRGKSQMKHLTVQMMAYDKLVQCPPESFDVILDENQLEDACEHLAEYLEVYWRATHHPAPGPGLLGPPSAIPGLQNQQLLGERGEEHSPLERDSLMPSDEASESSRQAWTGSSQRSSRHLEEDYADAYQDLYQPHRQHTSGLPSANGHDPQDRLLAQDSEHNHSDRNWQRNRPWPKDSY
T1 sequence (P54289 25-956 partner limits assumed): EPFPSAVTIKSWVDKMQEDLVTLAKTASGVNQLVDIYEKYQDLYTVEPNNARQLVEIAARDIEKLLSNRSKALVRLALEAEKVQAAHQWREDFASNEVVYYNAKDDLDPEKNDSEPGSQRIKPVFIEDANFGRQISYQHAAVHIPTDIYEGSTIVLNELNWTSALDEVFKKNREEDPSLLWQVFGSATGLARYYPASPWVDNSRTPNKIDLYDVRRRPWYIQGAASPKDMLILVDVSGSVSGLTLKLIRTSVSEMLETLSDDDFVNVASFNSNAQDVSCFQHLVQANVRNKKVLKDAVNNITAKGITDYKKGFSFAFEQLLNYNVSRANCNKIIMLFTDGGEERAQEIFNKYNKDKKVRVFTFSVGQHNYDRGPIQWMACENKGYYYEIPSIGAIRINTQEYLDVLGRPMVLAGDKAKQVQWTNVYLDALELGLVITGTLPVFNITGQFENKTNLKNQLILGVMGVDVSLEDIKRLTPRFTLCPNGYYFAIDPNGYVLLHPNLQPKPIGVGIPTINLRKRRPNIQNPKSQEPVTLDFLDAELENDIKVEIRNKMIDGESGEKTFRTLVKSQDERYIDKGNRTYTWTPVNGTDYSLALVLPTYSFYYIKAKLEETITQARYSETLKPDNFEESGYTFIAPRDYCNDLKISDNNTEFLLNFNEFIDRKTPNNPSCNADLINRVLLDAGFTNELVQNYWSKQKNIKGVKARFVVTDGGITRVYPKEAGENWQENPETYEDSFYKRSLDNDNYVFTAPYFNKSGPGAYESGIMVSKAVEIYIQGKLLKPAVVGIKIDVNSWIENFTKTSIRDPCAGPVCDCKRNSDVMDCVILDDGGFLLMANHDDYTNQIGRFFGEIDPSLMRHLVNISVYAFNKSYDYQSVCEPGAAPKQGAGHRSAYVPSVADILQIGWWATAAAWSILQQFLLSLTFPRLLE
T1 sequence (P54289 957-1103 partner limits assumed): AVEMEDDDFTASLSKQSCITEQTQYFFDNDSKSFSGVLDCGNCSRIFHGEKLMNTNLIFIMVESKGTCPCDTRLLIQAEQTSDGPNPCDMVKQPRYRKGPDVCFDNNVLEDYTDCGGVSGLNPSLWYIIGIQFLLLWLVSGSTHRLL

IC50 (NaV1.8) | IC50 (CaV2.2) | IC50 (NaV1.3) | SMILES
> 10 µM | 2 to 10 µM | 2 to 10 µM | O=C(c1cnc(N2CCOCC2)nc1-c1ccccc1F)N(Cc1ccccc1)C1CCC1 [compound 26]
> 10 µM | > 10 µM | > 10 µM | CC(C)N(Cc1ccccc1)C(=O)c1cnc(Nc2cccc(O)c2)nc1-c1ccccc1F [compound 132]
> 10 µM | > 10 µM | > 10 µM | CC(C)N(Cc1ccccc1)C(=O)c1cnc(N2CCOCC2)nc1-c1ccc(F)c(F)c1 [compound 16]
2 to 10 µM | < 2 µM | 2 to 10 µM | CC(C)N(Cc1ccc(C(C)(C)C)cc1)C(=O)c1cnc(N2CCOCC2)nc1-c1ccccc1F [compound 24]
2 to 10 µM | < 2 µM | 2 to 10 µM | CCN(CCOC)c1ncc(C(=O)N(Cc2ccccc2)C(C)C)c(-c2ccccc2F)n1 [compound 83]
> 10 µM | 2 to 10 µM | 2 to 10 µM | COc1cccc(CN(C(=O)c2cnc(N3CCOCC3)nc2-c2ccccc2F)C(C)C)c1 [compound 74]
> 10 µM | 2 to 10 µM | > 10 µM | CC(C)N(Cc1ccccc1)C(=O)c1cnc(NCc2cccc3ccccc23)nc1-c1ccccc1F [compound 135]
> 10 µM | 2 to 10 µM | 2 to 10 µM | CC(C)N(C(=O)c1cnc(N2CCCCC2)nc1-c1ccccc1F)c1ccccc1 [compound 93]
2 to 10 µM | < 2 µM | 2 to 10 µM | COc1cccc(CN(C(=O)c2cnc(N3CCSCC3)nc2-c2ccccc2F)C(C)C)c1 [compound 131]
> 10 µM | < 2 µM | < 2 µM | CCN(CCOC)c1ncc(C(=O)N(Cc2cccc(OC)c2)C(C)C)c(-c2ccccc2F)n1 [compound 103]
> 10 µM | 2 to 10 µM | 2 to 10 µM | O=C(c1cnc(N2CCSCC2)nc1-c1ccccc1F)N(Cc1ccccc1)C1CC1 [compound 109]
2 to 10 µM | < 2 µM | 2 to 10 µM | CC(C)N(Cc1ccccc1)C(=O)c1cnc(N2CCCCC2)nc1-c1ccccc1Cl [compound 1]
> 10 µM | > 10 µM | > 10 µM | CN1CCN(c2ncc(C(=O)N(Cc3ccccc3)C3CC3)c(-c3ccccc3F)n2)CC1 [compound 129]
> 10 µM | > 10 µM | > 10 µM | CC(C)N(Cc1ccccc1)C(=O)c1cnc(NCC(=O)O)nc1-c1ccccc1F [compound 153]
> 10 µM | < 2 µM | 2 to 10 µM | CCN(CCC#N)c1ncc(C(=O)N(Cc2ccccc2)C(C)C)c(-c2ccccc2F)n1 [compound 96]
2 to 10 µM | < 2 µM | 2 to 10 µM | CC(C)N(Cc1ccccc1)C(=O)c1cnc(NC2CC3CCC2C3)nc1-c1ccccc1F (stereo not drawn) [compound 29]

Second part, the compound before the results:

SMILES | IC50 (NaV1.8) | IC50 (CaV2.2) | IC50 (NaV1.3)
CN1CCN(c2ncc(C(=O)N(Cc3ccccc3)C3CCCCC3)c(-c3ccccc3F)n2)CC1 [compound 147] | > 10 µM | 2 to 10 µM | > 10 µM
COc1cccc(N(C(=O)c2cnc(N3CCCCC3)nc2-c2ccccc2F)C2CCCC2)c1 [compound 42] | > 10 µM | 2 to 10 µM | 2 to 10 µM
COc1cccc(N(C(=O)c2cnc(N3CCCCC3)nc2-c2ccccc2F)C2CCOCC2)c1 [compound 35] | > 10 µM | > 10 µM | > 10 µM
CC(C)N(C(=O)c1cnc(N2CCCCC2)nc1-c1ccccc1F)c1cccc(C(C)(C)C)c1 [compound 41] | > 10 µM | > 10 µM | 2 to 10 µM
COc1cccc(N(C(=O)c2cnc(N3CCCCC3)nc2-c2ccccc2F)C2CC2)c1 [compound 158] | > 10 µM | > 10 µM | > 10 µM
O=C(c1cnc(N2CCOCC2)nc1-c1ccccc1F)N(Cc1cccc2ccccc12)C1CC1 [compound 40] | > 10 µM | > 10 µM | 2 to 10 µM
O=C(c1cnc(N2CCOCC2)nc1-c1ccccc1F)N(Cc1ccccc1)C1CCCCC1 [compound 64] | > 10 µM | 2 to 10 µM | 2 to 10 µM
Cc1nc(N2CCCCC2)nc(-c2ccccc2F)c1C(=O)N(Cc1ccc2c(c1)CCO2)C1CC1 [compound 192] | > 10 µM | > 10 µM | > 10 µM
CN1CCN(c2ncc(C(=O)N(Cc3ccncc3)C3CC3)c(-c3ccccc3F)n2)CC1 [compound 18] | > 10 µM | > 10 µM | > 10 µM
COc1cccc(N(C(=O)c2cnc(N3CCC4CCCCC4C3)nc2-c2ccccc2F)C2CCOCC2)c1 (stereo not drawn) [compound 68] | > 10 µM | 2 to 10 µM | > 10 µM
CN1CCN(c2ncc(C(=O)N(Cc3ccc(C(C)(C)C)cc3)C3CC3)c(-c3ccccc3F)n2)CC1 [compound 176] | > 10 µM | 2 to 10 µM | > 10 µM
O=C(c1cnc(N2CCOCC2)nc1-c1ccccc1F)N1CCc2ccccc2C1 [compound 107] | > 10 µM | > 10 µM | > 10 µM
CC(C)N(Cc1ccc(N2CCCC2)cc1)C(=O)c1cnc(N2CCCCC2)nc1-c1ccccc1Cl [compound 198] | > 10 µM | 2 to 10 µM | > 10 µM
Cc1nc(N2CCOCC2)nc(-c2ccccc2F)c1C(=O)N(Cc1ccc2c(c1)CCO2)C1CC1 [compound 200] | > 10 µM | 2 to 10 µM | 2 to 10 µM
COc1cccc(N(C(=O)c2cnc(N3CCCCC3)nc2-c2ccccc2Cl)C2CCC2)c1 [compound 27] | > 10 µM | 2 to 10 µM | 2 to 10 µM
COc1cccc(N(C(=O)c2cnc(N3CCC4CCCCC4C3)nc2-c2ccccc2F)C2CC2)c1 (stereo not drawn) [compound 189] | > 10 µM | 2 to 10 µM | > 10 µM
CC1Cc2ccccc2N1C(=O)c1cnc(N2CCOCC2)nc1-c1ccccc1F (stereo not drawn) [compound 150] | > 10 µM | > 10 µM | > 10 µM
CC(C)N(C(=O)c1cnc(N2CCOCC2)nc1-c1ccccc1F)c1cccc(C(C)(C)C)c1 [compound 165] | > 10 µM | > 10 µM | 2 to 10 µM

SMILES | IC50 (NaV1.8) | IC50 (CaV2.2) | IC50 (NaV1.3)
COc1cccc(N(C(=O)c2cnc(N3CCCCC3)nc2-c2ccccc2F)C2CCCCC2)c1 [compound 127] | > 10 µM | 2 to 10 µM | 2 to 10 µM
COc1cccc(N(C(=O)c2cnc(N3CCC4CCCCC4C3)nc2-c2ccccc2F)C2CCCC2)c1 (stereo not drawn) [compound 154] | > 10 µM | 2 to 10 µM | > 10 µM
CC(C)N(Cc1ccc2c(c1)OCO2)C(=O)c1cnc(N2CCCCC2)nc1-c1ccccc1F [compound 94] | 2 to 10 µM | < 2 µM | < 2 µM
CC(C)N(C(=O)c1cnc(N2CCCCC2)nc1-c1ccccc1F)c1cccc(N(C)C)c1 [compound 152] | > 10 µM | 2 to 10 µM | 2 to 10 µM
O=C(c1cnc(N2CCSCC2)nc1-c1ccccc1F)N(Cc1ccc(C(F)(F)F)cc1)C1CC1 [compound 85] | 2 to 10 µM | > 10 µM | 2 to 10 µM
COc1cccc(N(C(=O)c2c(C)nc(N3CCCCC3)nc2-c2ccccc2F)C(C)C)c1 [compound 104] | > 10 µM | > 10 µM | 2 to 10 µM
COc1cccc(N(C(=O)c2cnc(N3CCC4CCCCC4C3)nc2-c2ccccc2F)C(C)C)c1 (stereo not drawn) [compound 34] | > 10 µM | 2 to 10 µM | 2 to 10 µM
O=C(NC1CCC1)c1cnc(N2CCOCC2)nc1-c1ccccc1F [compound 174] | > 10 µM | > 10 µM | > 10 µM
CC(C)N(Cc1ccc2c(c1)OCO2)C(=O)c1cnc(N2CCC3CCCCC3C2)nc1-c1ccccc1F (stereo not drawn) [compound 120] | > 10 µM | < 2 µM | 2 to 10 µM
O=C(NCCCc1ccccc1)c1cnc(N2CCOCC2)nc1-c1ccc(Oc2ccccc2)cc1 [compound 46] | > 10 µM | > 10 µM | > 10 µM
O=C(NC1CC1)c1cnc(N2CCOCC2)nc1-c1ccccc1F [compound 79] | > 10 µM | > 10 µM | > 10 µM
CC(C)N(C(=O)c1cnc(N2CCCCC2)nc1-c1ccccc1Cl)c1ccccc1 [compound 82] | > 10 µM | 2 to 10 µM | > 10 µM
CN1CCN(c2ncc(C(=O)N(Cc3ccccc3)C3CCCC3)c(-c3ccccc3F)n2)CC1 [compound 148] | > 10 µM | 2 to 10 µM | > 10 µM
COc1cccc(CN(C(=O)c2cnc(N3CCOCC3)nc2-c2ccccc2F)C2CC2)c1 [compound 56] | > 10 µM | 2 to 10 µM | > 10 µM
CC(C)N(C(=O)c1cnc(N2CCOCC2)nc1-c1ccccc1F)c1cccc([N+](=O)[O-])c1 [compound 178] | > 10 µM | > 10 µM | > 10 µM
COc1ccc(N(C(=O)c2cnc(N3CCCCC3)nc2-c2ccccc2Cl)C(C)C)cc1 [compound 43] | > 10 µM | 2 to 10 µM | 2 to 10 µM
COc1cccc(N(C(=O)c2cnc(N3CCCCC3)nc2-c2ccccc2Cl)C2CCOCC2)c1 [compound 203] | > 10 µM | > 10 µM | > 10 µM
O=C(c1cnc(N2CCCCC2)nc1-c1ccccc1Cl)N(Cc1ccc2c(c1)CCO2)C1CC1 [compound 7] | > 10 µM | 2 to 10 µM | 2 to 10 µM
